From patent US20080234199A1, “Chemical Compounds” (Smithkline Beecham Corporation, priority 2005, published 2008)

CCC(=C(c1ccc(O)cc1)c1ccc(O)cc1)c1ccc(OCCO)c(OC)c1 [Example 27, 4,4′-{2-[4-[(2-hydroxyethyl)oxy]-3-(methyloxy)phenyl]-1-butene-1,1-diyl}diphenol]
melting point: 158 to 159 °C

CCC(=C(c1ccc(O)cc1)c1ccc(O)cc1)c1ccc(/C=C/C(=O)O)cc1 [Example 1, (2E)-3-{4-[1-ethyl-2,2-bis(4-hydroxyphenyl)ethenyl]phenyl}-2-propenoic acid]
melting point: 280 to 281 °C
